Measured values taken from ChEMBL document CHEMBL1208686, “Synthesis and antileishmanial activity of piperoyl-amino acid conjugates” (Eur J Med Chem, 2010).

Columns and labels:
[1] = system: PBMC; test: Cytotoxicity against human PBMC at 2 times IC50 concentration after 48 hrs by MTT assay; assay type: cell-based
[2] = system: Leishmania donovani; test: Antileishmanial activity against Leishmania donovani amastigotes after 48 hrs by MTT assay; assay type: functional, organism-based
[3] = system: PBMC; test: Cytotoxicity against human PBMC at IC50 concentration after 48 hrs by MTT assay; assay type: cell-based
[4] = system: Leishmania donovani; test: Antileishmanial activity against Leishmania donovani promastigotes after 48 hrs by MTT assay; assay type: functional, organism-based
[5] = system: Leishmania donovani; test: Antileishmanial activity against Leishmania donovani infected in golden Syrian hamsters assessed as reduction of spleen weight at 250 mg/kg, ip administered 20 days after infection for 10 days (reference value: 503 +/- 34 mg); assay type: functional; conditions: route intraperitoneal
[6] = system: Leishmania donovani; test: Antileishmanial activity against Leishmania donovani infected in golden Syrian hamsters assessed as reduction of spleen parasitic burden at 250 mg/kg, ip administered 20 days after infection for 10 days relative to control; assay type: functional; set-up: scale not given: the % may be the effect or the level left; conditions: route intraperitoneal
[7] = system: Leishmania donovani; test: Antileishmanial activity against Leishmania donovani infected in golden Syrian hamsters assessed as reduction of spleen weight at 250 mg/kg, ip administered 20 days after infection for 10 days relative to control; assay type: functional; set-up: scale not given: the % may be the effect or the level left; conditions: route intraperitoneal
[8] = system: Leishmania donovani; test: Antileishmanial activity against Leishmania donovani infected in golden Syrian hamsters assessed as reduction of spleen parasitic burden at 12.5 mg/kg, po administered 20 days after infection for 10 days relative to control; assay type: functional; set-up: scale not given: the % may be the effect or the level left
[9] = system: Leishmania donovani; test: Antileishmanial activity against Leishmania donovani infected in golden Syrian hamsters assessed as reduction of spleen weight at 12.5 mg/kg, po administered 20 days after infection for 10 days relative to control; assay type: functional; set-up: scale not given: the % may be the effect or the level left
[10] = system: Leishmania donovani; test: Antileishmanial activity against Leishmania donovani infected in golden Syrian hamsters assessed as reduction of spleen weight at 12.5 mg/kg, po administered 20 days after infection for 10 days (reference value: 503 +/- 34 mg); assay type: functional

Row | SMILES | Activity [1] [%] | IC50 [2] [µM] | Activity [3] [%] | IC50 [4] [µM] | Activity [5] [mg] | Activity [6] [%] | Activity [7] [%] | Activity [8] [%] | Activity [9] [%] | Activity [10] [mg]
1 | COC(=O)[C@@H](N)CCSC | 7.3 | 1900 | 1.5 | 1930 |  |  |  |  |  | 
2 | COC(=O)C(CCSC)NC(=O)/C=C/C=C/c1ccc2c(c1)OCO2 (stereo unspecified) | 7.5 | 168 | 4 | 823 |  |  |  |  |  | 
3 | COC(=O)C(Cc1ccc(O)cc1)NC(=O)CCCCc1ccc2c(c1)OCO2 (stereo unspecified) | 7.6 | 202 | 5 | 536 |  |  |  |  |  | 
4 | COC(=O)C(NC(=O)CCCCc1ccc2c(c1)OCO2)C(C)C (stereo unspecified) | 7.7 | 240 | 4.5 | 722 |  |  |  |  |  | 
5 | COC(=O)C(CCSC)NC(=O)CCCCc1ccc2c(c1)OCO2 (stereo unspecified) | 5 | 221 | 3 | 607 |  |  |  |  |  | 
6 | COC(=O)C(Cc1c[nH]c2ccccc12)NC(=O)CCCCc1ccc2c(c1)OCO2 (stereo unspecified) | 5 | 176 | 2.5 | 473 |  |  |  |  |  | 
7 | COC(=O)[C@@H](N)C(C)C | 6 | 1760 | 4 | 2350 |  |  |  |  |  | 
8 | COC(=O)C(Cc1ccccc1)NC(=O)/C=C/C=C/c1ccc2c(c1)OCO2 (stereo unspecified) | 7 | 197 | 4 | 834 | 353 | 35 | 30 |  |  | 
9 | COC(=O)C(Cc1ccc(O)cc1)NC(=O)/C=C/C=C/c1ccc2c(c1)OCO2 (stereo unspecified) | 6 | 210 | 3.5 | 791 |  |  |  |  |  | 
10 | COC(=O)C(NC(=O)/C=C/C=C/c1ccc2c(c1)OCO2)C(C)C (stereo unspecified) | 3.8 | 75 | 3 | 875 | 516 | 24 |  |  |  | 
11 | COC(=O)C(Cc1c[nH]c2ccccc12)NC(=O)/C=C/C=C/c1ccc2c(c1)OCO2 (stereo unspecified) | 5.2 | 119 | 3 | 855 |  |  |  |  |  | 
12 | O=C(/C=C/C=C/c1ccc2c(c1)OCO2)NC(Cc1ccccc1)C(=O)O (stereo unspecified) | 8.5 | 256 | 1.2 | 927 |  |  |  |  |  | 
13 | O=C(/C=C/C=C/c1ccc2c(c1)OCO2)NC(Cc1ccc(O)cc1)C(=O)O (stereo unspecified) | 6 | 249 | 4 | 761 |  |  |  |  |  | 
14 | CC(C)C(NC(=O)/C=C/C=C/c1ccc2c(c1)OCO2)C(=O)O (stereo unspecified) | 9 | 310 | 5.5 | 1030 |  |  |  |  |  | 
15 | CSCCC(NC(=O)/C=C/C=C/c1ccc2c(c1)OCO2)C(=O)O (stereo unspecified) | 7.7 | 237 | 1.8 | 1310 |  |  |  |  |  | 
16 | O=C(/C=C/C=C/c1ccc2c(c1)OCO2)NC(Cc1c[nH]c2ccccc12)C(=O)O (stereo unspecified) | 10 | 236 | 3.6 | 1020 |  |  |  |  |  | 
17 | COC(=O)C(Cc1ccccc1)NC(=O)CCCCc1ccc2c(c1)OCO2 (stereo unspecified) | 7.2 | 212 | 5.5 | 669 |  |  |  |  |  | 
18 | CCCCCCCCCCCCCCCCOP(=O)([O-])OCC[N+](C)(C)C [MILTEFOSINE] | 35 | 18 | 29 | 33 |  |  |  | 87 | 43 | 287
19 | O=C(O)/C=C/C=C/c1ccc2c(c1)OCO2 [PIPERIC ACID] | 8 | 395 | 4.5 | 1760 |  |  |  |  |  | 
20 | O=C(/C=C/C=C/c1ccc2c(c1)OCO2)N1CCCCC1 [PIPERINE] | 10 | 752 | 7 | 2560 |  |  |  |  |  | 
21 | COC(=O)[C@@H](N)Cc1c[nH]c2ccccc12 [TRYPTOPHAN METHYL ESTER] | 5.3 | 1420 | 1.8 | 1370 |  |  |  |  |  | 
22 | COC(=O)[C@@H](N)Cc1ccc(O)cc1 [TYROSINE METHYL ESTER] | 5 | 1400 | 0.3 | 2090 |  |  |  |  |  | 
